Test results as given in patent publication US20240166626A1, “Compounds and Methods for Preventing, Treating, or Ameliorating Airway Disease” (THOMAS JEFFERSON UNIVERSITY, priority 2021, published 2024).

Biological target: CXCR4 (Homo sapiens, UniProt P61073)
Experiment: BRET analysis of β-arrestin2 interaction with CXCR4 in HEK 293 cells
Format: cell-based
Conditions: 10 μM DFPQ, FIG. 2C
Method: FIGS. 2A-2C: […] Cells were read every 2 min post agonist addition. […]® ADRB2 cells (DiscoveRx) were maintained with the AssayCompleteTM Cell Culture kit (DiscoveRx catalog #92-[…]). […] HEK 293 cells stably overexpressing β2AR included 250 μg/ml G418. Cells were incubated at 37° C. in a humidified incubator with 5% CO2. […] Cells were read every three minutes for 18 minutes on a PolarStar Optima plate reader (BMG) to establish peak signal. […] Plates were incubated in the dark at room temperature for one hour. Luminescence was determined at room temperature (23-25° C.) on a PolarStar Optima plate reader (BMG). […] Screening data analysis and IC50 determination. […] Relative assay bias was calculated from the ratio of normalized cAMP and arrestin recruitment responses. […] BRET was measured using a Tecan Infinite F500 microplate reader. […] Bound [35 S]GTPγS was collected by rapid filtration on GF/B filters, washed 4 times with 4 ml of cold GTPγS wash buffer and analyzed by liquid scintillation counting. […] Immunoprecipitated proteins were separated by SDS-PAGE and analyzed by western blot using a β2AR C-terminal tail or phospho-specific antibody. […] Band intensity was measured by densitometry using ImageJ. […] Absorbance was then measured on a plate reader at 405 nm. […] Lungs were monitored for appropriate inflation. […] Images were analyzed post hoc using the ImageJ software. […] Cell-free area was quantitated using ImageJ. […]

CXCR4, sequence (P61073 whole entry, species assumed): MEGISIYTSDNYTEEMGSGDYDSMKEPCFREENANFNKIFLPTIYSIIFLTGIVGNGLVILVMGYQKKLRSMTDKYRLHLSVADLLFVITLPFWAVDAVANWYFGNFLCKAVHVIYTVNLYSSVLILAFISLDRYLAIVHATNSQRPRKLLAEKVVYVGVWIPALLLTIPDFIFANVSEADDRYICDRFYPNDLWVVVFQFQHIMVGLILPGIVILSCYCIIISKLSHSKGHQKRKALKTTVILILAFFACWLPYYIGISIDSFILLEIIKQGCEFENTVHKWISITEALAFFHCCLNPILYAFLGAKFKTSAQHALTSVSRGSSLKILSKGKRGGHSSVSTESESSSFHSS

β-arrestin2 interaction with CXCR4: no effect
Compound: Fc1ccc(Nc2nc(NC3CCCCC3)c3ccccc3n2)cc1F [DFPQ, N^4-cyclohexyl-N^2-(3,4-difluorophenyl)quinazoline-2,4-diamine]
